Experimental data: ChEMBL document CHEMBL1154354, “Synthetic peptides containing a conserved sequence motif of the Id protein family modulate vascular smooth muscle cell phenotype” (Bioorg Med Chem Lett, 2009)
One block for each compound: values may come before it. Active and inactive are the calls of the source. No cut-off for these calls is given here.

Tests used:
[1] = test system: HSMC; assay: (§1) Antiproliferative activity against HSMC expressing Id-protein assessed as reduction in cell growth after 72 hrs by Coulter counting; format: functional; settings: Homo sapiens
[2] = as §1; format: functional, Homo sapiens; parameters: scale not given: the % may be the effect or the level left
[3] = Inhibition of PDGF-stimulated HSMC migration after 8 hrs by Boyden chamber assay; format: functional, Homo sapiens; parameters: scale not given: the % may be the effect or the level left
[4] = target: T1, DNA-binding protein inhibitor ID-1 (Homo sapiens) (UniProt P41134); assay: Binding affinity to ID-HLH domain by CD spectroscoy
T1 sequence (whole entry): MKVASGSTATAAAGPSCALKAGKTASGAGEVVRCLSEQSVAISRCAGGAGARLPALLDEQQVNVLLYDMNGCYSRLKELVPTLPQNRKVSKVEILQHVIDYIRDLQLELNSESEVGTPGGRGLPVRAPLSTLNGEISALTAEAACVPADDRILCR

[5] = target: T1, DNA-binding protein inhibitor ID-1 (Homo sapiens); assay: Inhibition of ID1-protein in HSMC assessed as increase in alpha-actin mRNA level by real time PCR
[6] = target: T1, DNA-binding protein inhibitor ID-1 (Homo sapiens); assay: Inhibition of ID1-protein in HSMC assessed as increase in alpha-actin protein level by Western blotting
[7] = target: T1, DNA-binding protein inhibitor ID-1 (Homo sapiens); assay: Decrease in ID1-protein level in HSMC by Western blotting
[8] = Drug uptake by HSMC assessed as mean fluorescence index after 72 hrs by FACS; format: ADME; settings: human
[9] = Perinuclear localization in HSMC after 6 hrs by fluorescence microscopy; format: ADME, cell-based; settings: human

Compound: Ac-LYDMNGCYSRLKELVPTLPQNRKVSKVEILQHVIDYIRDLQ-NH2
Activity [1]: Toxic

Compound: CC[C@H](C)[C@H](NC(=O)[C@H](CCC(=O)O)NC(=O)[C@@H](NC(=O)[C@H](CCCCN)NC(=O)C1CCC(C(NC(=O)c2ccccc2)C(=O)N[C@@H](CCCCN)C(=O)N[C@H](C(=O)N[C@@H](CCC(=O)O)C(=O)N[C@H](C(=O)N[C@@H](CC(C)C)C(=O)N[C@@H](CCC(N)=O)C(=O)N[C@@H](Cc2cnc[nH]2)C(=O)N[C@H](C(=O)N[C@H](C(=O)N[C@@H](CC(=O)O)C(=O)N[C@@H](Cc2ccc(O)cc2)C(N)=O)[C@@H](C)CC)C(C)C)[C@@H](C)CC)C(C)C)C1)C(C)C)C(=O)N[C@@H](CC(C)C)C(=O)N[C@@H](CCC(N)=O)C(=O)N[C@@H](Cc1cnc[nH]1)C(=O)N[C@H](C(=O)N[C@H](C(=O)N[C@@H](CC(=O)O)C(=O)N[C@@H](Cc1ccc(O)cc1)C(N)=O)[C@@H](C)CC)C(C)C (stereo partly drawn)
Activity [2]: 40%
Activity [3]: 20%

Compound: CC[C@H](C)[C@H](NC(=O)[C@H](Cc1ccc(O)cc1)NC(=O)[C@H](CC(=O)O)NC(=O)[C@@H](NC(=O)[C@@H](NC(=O)[C@H](Cc1cnc[nH]1)NC(=O)[C@H](CCC(N)=O)NC(=O)[C@H](CC(C)C)NC(=O)[C@@H](NC(=O)[C@H](CCC(=O)O)NC(=O)[C@@H](NC(=O)[C@H](CCCCN)NC(=O)C1CCC(C(NC(=O)c2ccccc2)C(=O)N[C@@H](CCCCN)C(=O)N[C@H](C(=O)N[C@@H](CCC(=O)O)C(=O)N[C@H](C(=O)N[C@@H](CC(C)C)C(=O)N[C@@H](CCC(N)=O)C(=O)N[C@@H](Cc2cnc[nH]2)C(=O)N[C@H](C(=O)N[C@H](C(=O)N[C@@H](CC(=O)O)C(=O)N[C@@H](Cc2ccc(O)cc2)C(=O)N[C@H](C(=O)N[C@@H](CCCNC(=N)N)C(=O)N[C@@H](CC(C)C)C(=O)N[C@@H](CC(=O)O)C(=O)N[C@@H](CCC(N)=O)C(N)=O)[C@@H](C)CC)[C@@H](C)CC)C(C)C)[C@@H](C)CC)C(C)C)C1)C(C)C)[C@@H](C)CC)C(C)C)[C@@H](C)CC)C(=O)N[C@@H](CCCNC(=N)N)C(=O)N[C@@H](CC(C)C)C(=O)N[C@@H](CC(=O)O)C(=O)N[C@@H](CCC(N)=O)C(N)=O (stereo partly drawn)
Activity [2]: 30%

K0.5 [4]: 6.6 µM
Activity [5]: Dose-dependent effect
Activity [6]: Dose-dependent effect
Activity [7]: Active
Compound: CC[C@H](C)[C@H](NC(=O)[C@H](CCC(=O)O)NC(=O)[C@@H](NC(=O)[C@H](CCCCN)NC(=O)[C@H]1CC[C@@H]([C@H](NC(=O)c2ccccc2)C(=O)N[C@@H](CCCCN)C(=O)N[C@H](C(=O)N[C@@H](CCC(=O)O)C(=O)N[C@H](C(=O)N[C@@H](CC(C)C)C(=O)N[C@@H](CCC(N)=O)C(=O)N[C@@H](Cc2cnc[nH]2)C(=O)N[C@H](C(=O)N[C@H](C(=O)N[C@@H](CC(=O)O)C(=O)N[C@@H](Cc2ccc(O)cc2)C(N)=O)[C@@H](C)CC)C(C)C)[C@@H](C)CC)C(C)C)C1)C(C)C)C(=O)N[C@@H](CC(C)C)C(=O)N[C@@H](CCC(N)=O)C(=O)N[C@@H](Cc1cnc[nH]1)C(=O)N[C@H](C(=O)N[C@H](C(=O)N[C@@H](CC(=O)O)C(=O)N[C@@H](Cc1ccc(O)cc1)C(N)=O)[C@@H](C)CC)C(C)C
Activity [2]: 40%

Activity [8]: Dose-dependent effect
Activity [9]: Active
Compound: CC[C@H](C)[C@H](NC(=O)[C@H](CCC(=O)O)NC(=O)[C@@H](NC(=O)[C@H](CCCCN)NC(=O)[C@H]1CC[C@@H]([C@H](NC(=O)c2cccc3c2C(=O)OC32c3ccc(O)cc3Oc3cc(O)ccc32)C(=O)O[C@@H](CCCCN)C(=O)N[C@H](C(=O)N[C@@H](CCC(=O)O)C(=O)N[C@H](C(=O)N[C@@H](CC(C)C)C(=O)N[C@@H](CCC(N)=O)C(=O)N[C@@H](Cc2cnc[nH]2)C(=O)N[C@H](C(=O)N[C@H](C(=O)N[C@@H](CC(=O)O)C(=O)N[C@@H](Cc2ccc(O)cc2)C(=O)N[C@@H](CCCCN)C(=O)N[C@@H](CCCCN)C(=O)N[C@@H](CCCCN)C(N)=O)[C@@H](C)CC)C(C)C)[C@@H](C)CC)C(C)C)C1)C(C)C)C(=O)N[C@@H](CC(C)C)C(=O)N[C@@H](CCC(N)=O)C(=O)N[C@@H](Cc1cnc[nH]1)C(=O)N[C@H](C(=O)N[C@H](C(=O)N[C@@H](CC(=O)O)C(=O)N[C@@H](Cc1ccc(O)cc1)C(=O)N[C@@H](CCCCN)C(=O)N[C@@H](CCCCN)C(=O)N[C@@H](CCCCN)C(N)=O)[C@@H](C)CC)C(C)C

Compound: CC[C@H](C)[C@H](NC(=O)[C@H](CCC(=O)O)NC(=O)[C@@H](NC(=O)[C@H](CCCCN)NC(=O)[C@@H]1CC[C@H]([C@@H](NC(=O)c2ccccc2)C(=O)N[C@@H](CCCCN)C(=O)N[C@H](C(=O)N[C@@H](CCC(=O)O)C(=O)N[C@H](C(=O)N[C@@H](CC(C)C)C(=O)N[C@@H](CCC(N)=O)C(=O)N[C@@H](Cc2cnc[nH]2)C(=O)N[C@H](C(=O)N[C@H](C(=O)N[C@@H](CC(=O)O)C(=O)N[C@@H](Cc2ccc(O)cc2)C(N)=O)[C@@H](C)CC)C(C)C)[C@@H](C)CC)C(C)C)C1)C(C)C)C(=O)N[C@@H](CC(C)C)C(=O)N[C@@H](CCC(N)=O)C(=O)N[C@@H](Cc1cnc[nH]1)C(=O)N[C@H](C(=O)N[C@H](C(=O)N[C@@H](CC(=O)O)C(=O)N[C@@H](Cc1ccc(O)cc1)C(N)=O)[C@@H](C)CC)C(C)C
Activity [2]: 40%

Compound: H-KVEILQHVIDYIRDLQ-OH
Activity [1]: inactive
